Source: paper PMC5473888 (Scientific Reports, 2017)

Tests used:
Y470F-hDAT = biological target: T1, Y470F-hDAT (Homo sapiens, UniProt Q01959, Y470F); assay: Competitive inhibition [3H]DA uptake assay in transfected PC12 cells; type: cell-based; conditions: SRI-20041 12.8 µM
T1 construct: synthetic cDNA encoding hDAT subcloned into pcDNA3.1 +; expressed in transfected cells; host or cells: PC12 cells (ATCC CRL-1721), transient, Lipofectamine 2000, pcDNA3.1+
Excerpt: (§1) Results are presented as mean ± SEM, and n represents the number of independent experiments for each experiment group.

WT hDAT [1] = biological target: T2, WT hDAT (Homo sapiens, UniProt Q01959); assay: as above; type: cell-based; set-up: synthetic cDNA encoding hDAT subcloned into pcDNA3.1 +; expressed in transfected cells; host or cells: PC12 cells (ATCC CRL-1721), transient, Lipofectamine 2000, pcDNA3.1+; conditions: SRI-20041 12.8 µM
T2 sequence (Q01959 whole entry): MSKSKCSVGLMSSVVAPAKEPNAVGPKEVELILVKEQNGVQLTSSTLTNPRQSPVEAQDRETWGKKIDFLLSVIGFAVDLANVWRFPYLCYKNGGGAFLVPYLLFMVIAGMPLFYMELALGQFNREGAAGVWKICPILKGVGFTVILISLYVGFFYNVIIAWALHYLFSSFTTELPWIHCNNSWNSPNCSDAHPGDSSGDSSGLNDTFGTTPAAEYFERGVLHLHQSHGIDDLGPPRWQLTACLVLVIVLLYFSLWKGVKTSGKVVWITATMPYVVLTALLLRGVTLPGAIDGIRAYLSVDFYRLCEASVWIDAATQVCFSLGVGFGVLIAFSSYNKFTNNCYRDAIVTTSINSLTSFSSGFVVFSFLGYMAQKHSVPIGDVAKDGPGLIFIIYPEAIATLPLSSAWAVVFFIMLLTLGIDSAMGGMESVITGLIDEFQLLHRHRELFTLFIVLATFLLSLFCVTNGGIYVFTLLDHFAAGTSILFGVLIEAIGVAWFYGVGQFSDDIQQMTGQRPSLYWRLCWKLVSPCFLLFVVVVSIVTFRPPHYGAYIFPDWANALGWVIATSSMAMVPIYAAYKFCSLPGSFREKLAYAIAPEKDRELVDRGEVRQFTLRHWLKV
Excerpt: as §1

WT hDAT [2] = biological target: T2, WT hDAT; assay: Tat-induced inhibition of specific [3H]WIN35,428 binding in CHO cells transfected with WT hDAT; set-up: synthetic cDNA encoding hDAT subcloned into pcDNA3.1 +; expressed in transfected cells; host or cells: CHO cells (ATCC CRL-61), transient, Lipofectamine 2000, pcDNA3.1+
Experimental: CHO cells transfected with WT hDAT were incubated with [^3H]WIN 35,428 (final concentration, 5 nM) with or without recombinant Tat1–86 (rTat1–86) (40 nM, final concentration) on ice for 2 h. […] Data for rTat1–86 and SRI-30827 + rTat1–86 are expressed as the percentage of their respective controls in the absence of rTat1–86 (15675 ± 2982 DPM) and SRI-30827 (14041 ± 3212 DPM) n = 5. *p < 0.05 compared with control value.
PC12 cells were maintained in the incubator (37 °C, 5% CO2) with DMEM medium supplemented with horse serum (15%) and bovine calf serum (2.5%), glutamine (2 mM), and penicillin-streptomycin (100 U/ml). Chinese hamster ovary cells (CHO cells, ATCC, CRL-61) were maintained in F12 medium with 10% fetal bovine serum and antibiotics (100 U/mL penicillin and 100 µg/mL streptomycin). For hDATs transfection, cells were seeded into poly-D-lysine-coated 24 well plates at a density of 1 × 10^5 cells/well. After 24 h, cells were transfected with WT or mutant DAT plasmids using Lipofectamine 2000 (Life Tech, Carlsbad, CA) based on the manufacturer’s instruction. Cells were used for the experiments after 24 h of transfection.

[3] = tested on: DA uptake in rat synaptosomes; set-up: method as in PMID 25788711; conditions: read-out: Potency for inhibition of DA uptake; cited from earlier work

T1 sequence (Q01959 whole entry Y470F): as the sequence (Q01959 whole entry) above, with Y470F counted along it

Row | SMILES | Increase of cocaine IC50 of [3H]DA uptake (Y470F-hDAT) | Increase of cocaine IC50 of [3H]DA uptake (WT hDAT [1]) | Effect on the specific [3H]WIN35,428 binding (WT hDAT [2]; SRI-30827 50 nM alone) | Specific [3H]WIN35,428 binding (WT hDAT [2]; SRI-30827 50 nM in the absence of rTat1–86, CHO cells, n = 5) | IC50 [3]
1 | c1ccc(-c2nc(NCCC(c3ccccc3)c3ccccc3)c3ccccc3n2)cc1 [SRI-20041] | ~ 40% | ~ 35% | – | – | –
2 | Cc1cc2nccn2cc1-c1nc(NCC(c2ccccc2)c2ccccc2)c2ccccc2n1 [SRI-30827] | – | – | did not alter | 14041 ± 3212 DPM | 0.5 nM
